Source: patent US20250353864A1, “INDAZOLE CONTAINING MACROCYCLES AND THEIR USE” (BLOSSOMHILL THERAPEUTICS, INC., priority 2022, published 2025)

Assays:
Type in all cases: biochemical
EGFR WT = EGFR WT (Homo sapiens (Human), UniProt P00533); assay: HotSpot radiometric kinase assay (Reaction Biology), EGFR WT; details: 10 μM ATP
Outline: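 Enzyme and substrate pairs were exposed to inhibitor for roughly 20 min before radiolabelled ATP (10 μM final) was introduced; the reaction proceeded 120 min at ambient temperature in pH 7.5 buffer with 1% DMSO, and phosphorylated product was captured on P81 filters for IC50 determination.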

EGFR (D770_N771insNPG) = EGFR (D770_N771insNPG) (Homo sapiens (Human), UniProt P00533, INS770NPG); assay: HotSpot radiometric kinase assay, EGFR (D770_N771insNPG); details: 10 μM ATP, read-out: EGFR (Δ770_N771insNPG) IC50
Outline: (§1)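 Radiometric filter-binding read-out: incorporated 33P was retained on P81 ion-exchange paper after washing away unbound phosphate. Reactions ran 120 min at room temperature with 10 μM final ATP, following ~20 min compound preincubation in Hepes pH 7.5 buffer containing 1% DMSO. IC50 from fitted curves.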

EGFR Δ746-750 mutant = EGFR Δ746-750 mutant (Homo sapiens (Human), UniProt P00533, DEL746-750); assay: HotSpot radiometric kinase assay, EGFR Δ746-750 mutant; details: 10 μM ATP
Outline: as §1

[1] = biological target: EGFR Δ746-750/C797S mutant (Homo sapiens (Human), UniProt P00533, C797S/DEL746-750); assay: HotSpot radiometric kinase assay, EGFR Δ746-750/C797S mutant; details: 10 μM ATP
Outline: as §1

EGFR L858R mutant = EGFR L858R mutant (Homo sapiens (Human), UniProt P00533, L858R); assay: HotSpot radiometric kinase assay, EGFR L858R mutant; details: 10 μM ATP
Outline: as §1

EGFR L858R/T790M mutant = EGFR L858R/T790M mutant (Homo sapiens (Human), UniProt P00533, L858R/T790M); assay: HotSpot radiometric kinase assay, EGFR L858R/T790M mutant; details: 10 μM ATP
Sequence of EGFR L858R/T790M mutant (P00533 25-1210 T790M/L858R): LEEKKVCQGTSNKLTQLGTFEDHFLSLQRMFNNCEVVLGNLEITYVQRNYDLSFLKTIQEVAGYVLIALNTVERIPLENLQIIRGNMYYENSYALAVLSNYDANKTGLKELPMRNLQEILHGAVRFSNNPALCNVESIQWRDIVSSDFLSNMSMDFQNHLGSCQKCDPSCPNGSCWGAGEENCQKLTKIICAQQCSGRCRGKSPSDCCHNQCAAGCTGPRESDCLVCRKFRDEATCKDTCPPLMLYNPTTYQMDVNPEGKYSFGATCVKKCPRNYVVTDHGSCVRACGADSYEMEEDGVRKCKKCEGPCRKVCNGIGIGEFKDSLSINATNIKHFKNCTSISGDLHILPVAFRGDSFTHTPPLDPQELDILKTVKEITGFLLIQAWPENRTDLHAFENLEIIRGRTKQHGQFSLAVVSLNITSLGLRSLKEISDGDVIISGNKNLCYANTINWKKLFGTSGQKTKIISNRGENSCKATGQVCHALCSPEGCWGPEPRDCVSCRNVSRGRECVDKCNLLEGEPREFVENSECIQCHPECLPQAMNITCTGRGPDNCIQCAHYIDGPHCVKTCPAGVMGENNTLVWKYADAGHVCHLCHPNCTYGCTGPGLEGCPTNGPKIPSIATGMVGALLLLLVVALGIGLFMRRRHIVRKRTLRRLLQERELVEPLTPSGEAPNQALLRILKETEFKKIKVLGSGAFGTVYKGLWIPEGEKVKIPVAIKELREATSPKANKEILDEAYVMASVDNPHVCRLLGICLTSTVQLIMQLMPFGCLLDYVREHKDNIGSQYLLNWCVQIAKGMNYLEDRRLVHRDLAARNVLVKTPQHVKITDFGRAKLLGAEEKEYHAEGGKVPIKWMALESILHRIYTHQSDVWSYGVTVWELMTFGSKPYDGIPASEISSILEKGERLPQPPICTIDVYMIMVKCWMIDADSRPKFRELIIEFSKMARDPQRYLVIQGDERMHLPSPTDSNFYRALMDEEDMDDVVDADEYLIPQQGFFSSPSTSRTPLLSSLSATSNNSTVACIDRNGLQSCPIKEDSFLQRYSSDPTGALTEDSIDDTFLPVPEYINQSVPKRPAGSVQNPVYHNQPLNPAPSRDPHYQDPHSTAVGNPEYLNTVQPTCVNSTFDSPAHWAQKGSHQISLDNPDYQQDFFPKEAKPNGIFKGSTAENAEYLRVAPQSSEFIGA
Outline: as §1

[2] = biological target: EGFR L858R/T790M/C797S mutant (Homo sapiens (Human), UniProt P00533, C797S/L858R/T790M); assay: HotSpot radiometric kinase assay, EGFR L858R/T790M/C797S mutant; details: 10 μM ATP
Sequence of EGFR L858R/T790M/C797S mutant (P00533 25-1210 T790M/C797S/L858R): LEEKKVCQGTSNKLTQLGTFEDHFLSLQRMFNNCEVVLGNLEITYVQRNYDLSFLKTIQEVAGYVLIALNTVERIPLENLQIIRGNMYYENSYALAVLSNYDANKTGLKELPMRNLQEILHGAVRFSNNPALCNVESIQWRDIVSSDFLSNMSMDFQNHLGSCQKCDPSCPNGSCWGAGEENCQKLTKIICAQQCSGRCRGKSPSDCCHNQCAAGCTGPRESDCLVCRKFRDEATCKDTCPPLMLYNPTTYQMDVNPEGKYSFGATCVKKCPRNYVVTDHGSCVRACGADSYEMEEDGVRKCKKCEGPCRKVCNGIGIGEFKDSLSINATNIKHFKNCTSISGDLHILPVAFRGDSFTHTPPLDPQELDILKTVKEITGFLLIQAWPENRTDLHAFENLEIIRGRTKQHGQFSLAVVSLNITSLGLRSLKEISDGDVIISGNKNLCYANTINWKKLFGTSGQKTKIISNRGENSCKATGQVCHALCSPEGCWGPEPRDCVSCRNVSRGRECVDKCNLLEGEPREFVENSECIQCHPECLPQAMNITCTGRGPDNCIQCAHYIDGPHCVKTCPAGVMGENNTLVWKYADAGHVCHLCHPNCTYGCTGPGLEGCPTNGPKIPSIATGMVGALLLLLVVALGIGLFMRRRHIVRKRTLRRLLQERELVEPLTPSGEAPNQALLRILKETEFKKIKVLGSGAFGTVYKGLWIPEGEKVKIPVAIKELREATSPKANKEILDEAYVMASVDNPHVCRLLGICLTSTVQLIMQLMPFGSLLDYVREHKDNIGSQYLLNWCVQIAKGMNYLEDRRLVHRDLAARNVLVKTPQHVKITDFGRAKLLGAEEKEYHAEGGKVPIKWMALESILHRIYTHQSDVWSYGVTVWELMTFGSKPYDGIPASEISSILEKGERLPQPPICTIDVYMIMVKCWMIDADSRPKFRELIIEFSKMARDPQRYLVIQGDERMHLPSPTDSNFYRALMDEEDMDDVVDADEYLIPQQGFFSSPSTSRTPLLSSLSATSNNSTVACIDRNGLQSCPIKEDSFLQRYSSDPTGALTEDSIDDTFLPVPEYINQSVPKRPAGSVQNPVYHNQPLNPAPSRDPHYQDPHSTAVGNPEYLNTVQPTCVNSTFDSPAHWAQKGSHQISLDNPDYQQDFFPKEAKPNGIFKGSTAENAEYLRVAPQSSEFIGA
Outline: as §1

ALK = ALK (Homo sapiens (Human), UniProt Q9UM73); assay: HotSpot radiometric kinase assay, inhibition of ALK kinase activity; details: 10 μM ATP
Sequence of ALK (Q9UM73 19-1620): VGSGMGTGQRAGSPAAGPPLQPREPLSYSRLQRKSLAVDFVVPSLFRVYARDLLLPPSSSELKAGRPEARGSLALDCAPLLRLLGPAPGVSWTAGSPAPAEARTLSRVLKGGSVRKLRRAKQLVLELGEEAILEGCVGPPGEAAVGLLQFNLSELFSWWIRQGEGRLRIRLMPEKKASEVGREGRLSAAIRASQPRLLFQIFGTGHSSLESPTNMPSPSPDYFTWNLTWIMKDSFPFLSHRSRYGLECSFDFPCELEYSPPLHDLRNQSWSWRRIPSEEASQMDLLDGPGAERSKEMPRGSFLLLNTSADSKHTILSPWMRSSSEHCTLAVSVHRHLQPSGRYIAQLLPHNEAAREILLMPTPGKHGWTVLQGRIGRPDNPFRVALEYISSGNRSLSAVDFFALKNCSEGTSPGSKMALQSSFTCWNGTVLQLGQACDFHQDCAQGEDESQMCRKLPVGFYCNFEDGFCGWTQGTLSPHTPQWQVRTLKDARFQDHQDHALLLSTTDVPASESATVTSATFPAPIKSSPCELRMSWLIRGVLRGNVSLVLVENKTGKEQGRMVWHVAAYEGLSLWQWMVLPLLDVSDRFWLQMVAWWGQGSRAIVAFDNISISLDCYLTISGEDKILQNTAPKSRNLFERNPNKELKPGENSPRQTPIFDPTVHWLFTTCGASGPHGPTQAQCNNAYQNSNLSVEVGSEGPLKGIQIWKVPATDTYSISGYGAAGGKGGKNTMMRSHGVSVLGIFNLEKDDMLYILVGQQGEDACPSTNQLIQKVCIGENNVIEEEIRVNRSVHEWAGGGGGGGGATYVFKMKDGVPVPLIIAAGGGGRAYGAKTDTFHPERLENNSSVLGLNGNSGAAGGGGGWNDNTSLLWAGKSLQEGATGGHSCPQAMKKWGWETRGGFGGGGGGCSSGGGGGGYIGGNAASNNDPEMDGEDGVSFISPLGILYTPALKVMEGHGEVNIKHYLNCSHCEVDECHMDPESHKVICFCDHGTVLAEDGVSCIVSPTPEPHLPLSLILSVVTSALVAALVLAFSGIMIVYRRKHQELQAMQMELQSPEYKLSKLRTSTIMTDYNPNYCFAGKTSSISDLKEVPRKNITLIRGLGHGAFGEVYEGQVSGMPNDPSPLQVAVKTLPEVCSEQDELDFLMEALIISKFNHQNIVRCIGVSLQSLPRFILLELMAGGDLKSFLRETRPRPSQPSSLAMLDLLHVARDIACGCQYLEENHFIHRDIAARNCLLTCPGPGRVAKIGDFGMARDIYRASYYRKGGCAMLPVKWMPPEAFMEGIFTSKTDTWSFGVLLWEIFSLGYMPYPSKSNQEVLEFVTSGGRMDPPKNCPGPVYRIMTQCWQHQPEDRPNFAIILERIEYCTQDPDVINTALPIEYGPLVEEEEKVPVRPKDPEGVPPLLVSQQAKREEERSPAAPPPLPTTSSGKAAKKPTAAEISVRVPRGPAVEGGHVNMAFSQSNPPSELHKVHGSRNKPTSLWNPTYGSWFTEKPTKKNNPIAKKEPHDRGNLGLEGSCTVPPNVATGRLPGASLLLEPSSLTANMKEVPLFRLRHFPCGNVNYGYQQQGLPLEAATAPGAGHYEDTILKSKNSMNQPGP
Procedure: Briefly, specific kinase/substrate pairs along with required cofactors were prepared in reaction buffer; 20 mM Hepes pH 7.5, 10 mM […], 1 mM EGTA, 0.02% Brij35, 0.02 mg/ml BSA, 0.1 mM Na3VO4, 2 mM DTT, 1% DMSO. Compounds were delivered into the reaction, followed […] later by addition of a mixture of ATP (Sigma, St. Louis MO) and ^33P ATP (Perkin Elmer, Waltham MA) to a final concentration of 10 μM. Reactions were carried out at room temperature for 120 min, followed by spotting of the reactions onto P81 ion exchange filter paper (Whatman Inc., Piscataway, NJ). Unbound phosphate was removed by extensive washing of filters in 0.75% phosphoric acid. […] IC50 values and curve fits were obtained using Prism (GraphPad Software).

CLK1 = CLK1 (Homo sapiens (Human), UniProt P49759); assay: Inhibition of CLK1 kinase activity evaluated at Nanosyn (ADP-Glo); details: ADP-Glo luminescence
Sequence of CLK1 (P49759 whole entry): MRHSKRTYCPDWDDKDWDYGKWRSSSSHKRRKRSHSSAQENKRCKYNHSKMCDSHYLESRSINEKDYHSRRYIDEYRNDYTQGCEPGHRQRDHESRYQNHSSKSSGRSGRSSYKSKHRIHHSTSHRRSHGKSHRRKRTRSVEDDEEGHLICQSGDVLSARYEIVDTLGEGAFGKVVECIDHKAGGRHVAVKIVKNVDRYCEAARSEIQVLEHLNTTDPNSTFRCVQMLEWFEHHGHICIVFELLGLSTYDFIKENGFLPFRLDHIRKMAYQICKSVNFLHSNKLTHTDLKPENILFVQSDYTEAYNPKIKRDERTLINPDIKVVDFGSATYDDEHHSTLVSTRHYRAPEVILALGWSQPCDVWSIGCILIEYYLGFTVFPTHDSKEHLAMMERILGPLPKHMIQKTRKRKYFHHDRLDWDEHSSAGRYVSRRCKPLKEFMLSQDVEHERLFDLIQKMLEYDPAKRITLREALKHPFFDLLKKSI
Outline: (§2)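 Enzyme + substrate in HEPES pH 7.5/MgCl2/DTT buffer; compound dispensed acoustically, 1% DMSO. ATP start, assay-specific incubation time. ADP-Glo reagent 40 min, detection reagent 10 min, luminescence. %inh vs DMSO (0%) and no-enzyme (100%) controls.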

CLK2 = CLK2 (Homo sapiens (Human), UniProt P49760); assay: Inhibition of CLK2 kinase activity evaluated at Nanosyn (ADP-Glo); details: ADP-Glo luminescence
Outline: as §2

CLK3 = CLK3 (Homo sapiens (Human), UniProt P49761); assay: Inhibition of CLK3 kinase activity evaluated at Nanosyn (ADP-Glo); details: ADP-Glo luminescence
Sequence of CLK3 (P49761 whole entry): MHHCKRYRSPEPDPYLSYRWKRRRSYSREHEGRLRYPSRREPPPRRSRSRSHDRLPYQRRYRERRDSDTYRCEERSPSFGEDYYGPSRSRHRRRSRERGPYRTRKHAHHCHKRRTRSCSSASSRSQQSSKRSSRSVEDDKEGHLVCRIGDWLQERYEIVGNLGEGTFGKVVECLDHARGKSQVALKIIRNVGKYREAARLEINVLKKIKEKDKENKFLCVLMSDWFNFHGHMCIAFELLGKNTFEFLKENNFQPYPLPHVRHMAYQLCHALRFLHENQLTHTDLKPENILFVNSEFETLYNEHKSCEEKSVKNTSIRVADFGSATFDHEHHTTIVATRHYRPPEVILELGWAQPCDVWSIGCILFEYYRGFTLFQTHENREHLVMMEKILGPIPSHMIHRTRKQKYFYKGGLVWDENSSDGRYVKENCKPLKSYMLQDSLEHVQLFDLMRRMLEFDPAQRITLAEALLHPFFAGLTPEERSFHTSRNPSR
Outline: as §2

CLK4 = CLK4 (Homo sapiens (Human), UniProt Q9HAZ1); assay: Inhibition of CLK4 kinase activity evaluated at Nanosyn (ADP-Glo); details: ADP-Glo luminescence
Outline: as §2

IC50 (EGFR WT) [nM]	IC50 (EGFR (D770_N771insNPG)) [nM]	IC50 (EGFR Δ746-750 mutant) [nM]	IC50 [1] [nM]	IC50 (EGFR L858R mutant) [nM]	IC50 (EGFR L858R/T790M mutant) [nM]	IC50 [2] [nM]	IC50 (ALK) [nM]	IC50 (CLK1) [nM]	IC50 (CLK2) [nM]	IC50 (CLK3) [nM]	IC50 (CLK4) [nM]	Structure (SMILES)
12.5	84.4	2.23	1.68	1.8	1.29	2.5	1.05	0.87	0.68	56.2	2.6	CC(C)Oc1nn(CCO)c2c1/C=C/c1n[nH]c3cc(F)c(cc13)-c1cnn(C)c1O[C@@H](C)CN(C)C2 [Example 181, 2-{(10S,17E)-19-fluoro-8,10,12-trimethyl-16-[(propan-2-yl)oxy]-2,8,10,11,12,13-hexahydro-14H-3,5-ethenotripyrazolo[3,4-f:3′,4′-j:4″,3″- n][1,4]oxazacyclopentadecin-14-yl}ethan-1-ol]
6.46	59.9	4.08	1.93	2.01	1.41	0.69	1.49	0.48	1	194	1.53	CC(C)Oc1nn([C@@H](C)CO)c2c1/C=C/c1n[nH]c3cc(F)c(cc13)-c1cnn(C)c1O[C@@H](C)CN(C)C2 [Example 200, (2S)-2-{(10S,17E)-19-fluoro-8,10,12-trimethyl-16-[(propan-2-yl)oxy]-2,8,10,11,12,13-hexahydro-14H-3,5-ethenotripyrazolo[3,4-f:3′,4′-j:4″,3″-n][1,4]oxazacyclopentadecin-14-yl}propan-1-ol]
0.77	8.31	0.22	0.48	0.35	0.2	0.17	2.47	2.37	2.51	592	7.25	CCOc1nn([C@@H](C)CO)c2c1/C=C/c1n[nH]c3cc(F)c(cc13)-c1cnn(C)c1O[C@@H](C)CN(C)C2 [Example 214, (2S)-2-[(10S,17E)-16-ethoxy-19-fluoro-8,10,12-trimethyl-2,8,10,11,12,13-hexahydro-14H-3,5-ethenotripyrazolo[3,4-f:3′,4′-j:4″,3″- n][1,4]oxazacyclopentadecin-14-yl]propan-1-ol]
1.71	3.75	0.69	1.93	1.7	1.49	0.89	2.58	3.33	2.1	964	9.08	CCOc1nn([C@@H](C)CO)c2c1/C=C/c1n[nH]c3cc(F)c(cc13)-c1cnn(C)c1O[C@@H](C)CN(CC)C2 [Example 215]
2.43	28.9	0.47	0.63	2.22	0.44	0.37	2.04	2.02	1.28	115	5.39	CCN1Cc2c(c(OC(C)C)nn2CCO)/C=C/c2n[nH]c3cc(F)c(cc23)-c2cnn(C)c2O[C@@H](C)C1 [Example 216, 2-{(10S,17E)-12-ethyl-19-fluoro-8,10-dimethyl-16-[(propan-2-yl)oxy]-2,8,10,11,12,13-hexahydro-14H-3,5-ethenotripyrazolo[3,4-f:3′,4′-j:4″,3″- n][1,4]oxazacyclopentadecin-14-yl}ethan-1-ol]
7.25	21.2	3.02	5.13	4.73	5.3	3.84	1.31	2.05	4.51	146	5.62	CCN1Cc2c(c(OC(C)C)nn2[C@@H](C)CO)/C=C/c2n[nH]c3cc(F)c(cc23)-c2cnn(C)c2O[C@@H](C)C1 [Example 219, (2S)-2-{(10S,17E)-12-ethyl-19-fluoro-8,10-dimethyl-16-[(propan-2-yl)oxy]-2,8,10,11,12,13-hexahydro-14H-3,5-ethenotripyrazolo[3,4-f:3′,4′-j:4″,3″- n][1,4]oxazacyclopentadecin-14-yl}propan-1-ol]
